One data set deals with mouse. Particulars: Carcinogenicity; cd1; Inhalation; Whole-Body; dose end: 18 month; group: systemic; systemic / pathology microscopic / liver / hemosiderosis + systemic / pathology microscopic / liver / hyperplasia + systemic / pathology ….
For another data set, the system named is rat. Particulars: Prenatal developmental toxicity study, sprague dawley, Dermal, Topical, dose end: 15 GD.
The next data set has as its system rabbit. Particulars: Prenatal developmental toxicity study, himalayan, Inhalation, Whole-Body, dose end: 19 GD.
Setting [1] is: group: developmental, developmental / developmental malformation / general / [other] + developmental / developmental malformation / general / crown-rump length.
Where [2] appears, read: group: maternal, systemic / organ weight / placenta / absolute.
The mark [3] stands for this setting: group: maternal, systemic / organ weight / placenta / absolute + systemic / in life observation / body weight / body weight gain + systemic / in life ….
The mark [4] stands for this setting: group: developmental, developmental / developmental malformation / bone / bipartite ossification + developmental / developmental malformation / bone / fused + ….
[5] abbreviates: group: maternal, systemic / in life observation / body weight / body weight.

On to `CN(C)C=O` [N,N-Dimethylformamide], for which the LEL in the data set on mouse stood at 25 ppm; in the data set on rat (setting [1]), 944 mg/kg/day; in the data set with rat (setting [2]), 94 mg/kg/day; with rabbit (setting [4]), 450 ppm; in the data set with rabbit (setting [5]), 450 ppm. Besides, the LOAEL (as a rule, the lowest dose or exposure tested at which an adverse effect was seen) was over 400 ppm in the data set with mouse; over 944 mg/kg/day in the data set with rat (setting [1]); over 944 mg/kg/day with rat (setting [3]); over 450 ppm with rabbit (setting [4]); over 450 ppm in the data set with rabbit (setting [5]). Also, the NEL in the data set on mouse was under 25 ppm; in the data set on rat (setting [1]), 472 mg/kg/day; with rat (setting [2]), under 94 mg/kg/day; in the data set on rabbit (setting [4]) it was 150 ppm; with rabbit (setting [5]) it was 150 ppm. Also, the NOAEL (usually the highest dose or exposure tested at which no adverse effect was seen) in the data set with mouse was at least 400 ppm; in the data set with rat (setting [1]), at least 944 mg/kg/day; in the data set with rat (setting [3]) it was at least 944 mg/kg/day; in the data set on rabbit (setting [4]), at least 450 ppm; in the data set with rabbit (setting [5]) it was at least 450 ppm.
